In US8735388B2, “Heterocyclic compounds with affinity to muscarinic receptors” (Abbvie B. V. A., priority 2007, dated 2014):
Read-outs that look alike come from different tables or passages of the source.

Columns and labels:
[1] = target: T1, Muscarine M3 (GPCR-A-MA-ACH M3) (Cavia porcellus, UniProt H0W1Z3); experiment: Muscarine M3 functional assay, isolated organ (ileum), agonist and antagonist mode; design: species or system Guinea Pig; conditions: for EC50: read-out: Cell funct. Musc. M3 Agonism pEC50 (converted)
T1 construct: from tissue; host or cells: guinea pig ileum
T1 sequence (H0W1Z3 1-590): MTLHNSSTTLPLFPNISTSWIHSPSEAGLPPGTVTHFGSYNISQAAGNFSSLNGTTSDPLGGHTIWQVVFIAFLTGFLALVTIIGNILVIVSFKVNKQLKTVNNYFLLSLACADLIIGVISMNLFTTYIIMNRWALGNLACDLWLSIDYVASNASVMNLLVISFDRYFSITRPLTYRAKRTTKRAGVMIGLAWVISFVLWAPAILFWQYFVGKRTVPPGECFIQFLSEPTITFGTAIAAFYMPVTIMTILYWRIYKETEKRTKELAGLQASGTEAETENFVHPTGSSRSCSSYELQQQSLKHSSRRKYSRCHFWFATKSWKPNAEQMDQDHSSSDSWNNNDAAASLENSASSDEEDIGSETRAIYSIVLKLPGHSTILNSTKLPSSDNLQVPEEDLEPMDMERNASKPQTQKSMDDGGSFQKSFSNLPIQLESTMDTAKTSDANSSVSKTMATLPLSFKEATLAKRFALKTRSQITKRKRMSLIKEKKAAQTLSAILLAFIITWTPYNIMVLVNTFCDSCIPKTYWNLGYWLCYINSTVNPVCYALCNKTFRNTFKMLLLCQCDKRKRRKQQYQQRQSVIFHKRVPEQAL

[2] = Stability in human liver homogenate (metabolic stability in vitro); format: in vitro ADME; conditions: read-out: t ½
Excerpt: DÖRJE, F., WESS, J., LAMBRECHT, G., TACKE, R., […], E. and BRANN, M. R. (1991) Antagonist binding profiles of five cloned human muscarinic receptor subtypes. J. Pharmacol. Exp. Ther., 256: 727-733. • […], M. H. (1990) Rat hippocampal muscarinic autoreceptors are similar to the M2 (cardiac) subtype: comparison with hippocampal M1, atrial M2 and ileal M3 receptors. Brit. J. Pharmacol., 99: 753-761. • PERALTA, E. G., ASHKENAZI, A., WINSLOW, J. W., SMITH, D. H., […], J. and CAPON, D. J. (1987) Distinct primary structures, ligand-binding properties and tissue-specific expression of four human muscarinic acetylcholine receptors. EMBO. J., 6: 3923-3929. Determination of Metabolic Stability (In Vitro)
Method used according to procedures described by DI, L. et al., Journal of Biomolecular Screening, Vol. 8, No. 4, 453-462 (2003).

[3] = target: T2, Muscarine M2 (GPCR-A-MA-ACH M2) (Cavia porcellus, UniProt H0VRN8); experiment: Muscarine M2 functional assay, isolated organ (left atrium, electrically paced), agonist and antagonist mode; design: species or system Guinea Pig; conditions: for EC50: read-out: Cell funct. Musc. M2 Agonism pEC50 (converted)
T2 construct: from tissue; host or cells: guinea pig left atrium (electrically paced)
T2 sequence (H0VRN8 1-466): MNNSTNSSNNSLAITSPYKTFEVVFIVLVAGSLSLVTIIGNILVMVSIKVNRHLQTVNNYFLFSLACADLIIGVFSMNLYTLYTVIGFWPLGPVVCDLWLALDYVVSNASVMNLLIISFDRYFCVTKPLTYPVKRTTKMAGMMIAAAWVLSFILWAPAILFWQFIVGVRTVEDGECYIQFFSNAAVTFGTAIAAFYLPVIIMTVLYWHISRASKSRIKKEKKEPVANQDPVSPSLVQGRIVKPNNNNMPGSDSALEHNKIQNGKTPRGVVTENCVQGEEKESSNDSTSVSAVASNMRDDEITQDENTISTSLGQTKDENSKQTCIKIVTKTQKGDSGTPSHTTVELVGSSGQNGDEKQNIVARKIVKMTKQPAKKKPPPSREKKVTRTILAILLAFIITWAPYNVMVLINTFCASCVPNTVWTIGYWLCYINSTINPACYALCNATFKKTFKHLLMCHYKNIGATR

[4] = target: T3, Muscarine M3 (GPCR-A-MA-ACH M3) (Homo sapiens, UniProt P20309); experiment: Muscarine M3 receptor binding; conditions: human M3, CHO cells; receptor binding
T3 construct: expressed in transfected cells; host or cells: CHO cells
T3 sequence (P20309 whole entry): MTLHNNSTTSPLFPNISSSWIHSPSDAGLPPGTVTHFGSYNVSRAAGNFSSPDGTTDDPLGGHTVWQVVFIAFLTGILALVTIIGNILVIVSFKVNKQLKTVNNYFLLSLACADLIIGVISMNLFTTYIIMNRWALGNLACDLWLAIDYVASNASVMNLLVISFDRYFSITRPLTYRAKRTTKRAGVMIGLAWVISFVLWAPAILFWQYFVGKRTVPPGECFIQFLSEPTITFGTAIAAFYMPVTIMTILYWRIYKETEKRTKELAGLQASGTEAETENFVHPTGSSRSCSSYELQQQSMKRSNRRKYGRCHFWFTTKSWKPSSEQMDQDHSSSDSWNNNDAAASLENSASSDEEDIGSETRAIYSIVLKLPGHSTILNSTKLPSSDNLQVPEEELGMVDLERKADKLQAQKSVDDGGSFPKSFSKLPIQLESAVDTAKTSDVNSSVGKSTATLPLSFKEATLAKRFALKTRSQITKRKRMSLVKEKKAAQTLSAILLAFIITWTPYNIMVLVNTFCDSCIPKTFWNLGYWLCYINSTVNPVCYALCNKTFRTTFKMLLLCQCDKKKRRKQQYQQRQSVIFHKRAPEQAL

[5] = read-out: Cell funct. Musc. M2 Antagonism pA2 (converted)

Compound	Kb [1]	EC50 [1]	half-life [2]	EC50 [3]	Kb [3, 5]	Ki [4]	Kb [3]
CCOCCSc1c[nH]nc1C1=CCCN(C)C1 [Compound 22O, 3-[4-(2-Ethoxy-ethylsulfanyl)-1H-pyrazol-3-yl]-1,2,5,6-tetrahydro-1-methylpyridine]	> 1000 nM	> 1000 nM	4.08 h	> 1000 nM		2510 nM	20 nM
C=CCCCOc1c[nH]nc1C1=CCCN(C)C1 [Compound 33F, 3-(4-Pent-4-enyloxy-1H-pyrazol-3-yl)-1,2,5,6-tetrahydro-1-methylpyridine]	> 1000 nM	> 1000 nM	3.83 h	> 1000 nM	> 1000 nM	1000 nM	

Now those with a lower Ki [4], led by results:

Kb [1]	EC50 [1]	half-life [2]	EC50 [3]	Kb [3, 5]	Ki [4]	Kb [3]	Compound
> 1000 nM	> 1000 nM	2.15 h	> 1000 nM	> 1000 nM	316 nM		CN1CCC=C(c2n[nH]cc2SCCC=C(F)F)C1 [Compound 22J, 3-[4-(4,4-Difluoro-but-3enylsulfanyl)-1H-pyrazol-3-yl]-1,2,5,6-tetrahydro-1-methylpyridine]
> 1000 nM	> 1000 nM	0.933 h	> 1000 nM	> 1000 nM	316 nM		C=CCCCSc1c[nH]nc1C1=CCCN(C)C1 [Compound 22L]
> 1000 nM	> 1000 nM	0.933 h	> 1000 nM	> 1000 nM	794 nM		CCCCCOc1c[nH]nc1C1=CCCN(C)C1 [Compound 33G, 3-(4-Pentyloxy-1H-pyrazol-3-yl)-1,2,5,6-tetrahydro-1-methylpyridine]
